Columns and labels:
tps1Δ cells = test: Growth rescue of tps1Δ strain on glucose (growth curves, 2% galactose medium); assay type: cell-based, S. cerevisiae; settings: 100 μM compound, 2.5 mM glucose
Protocol: Growth curves were made by measuring OD595 in a 96-well plate using the Multiskan™ FC Microplate Photometer (Thermo Fisher Scientific). Typically, for tps1Δ rescue experiments (FIG. 2b-e; FIG. 4a), cells were (pre)grown in Complete Synthetic medium containing 2% galactose.
Compounds were always added 10 min prior to glucose addition to ensure maximal interaction between the cells and compounds. Cells originating from the preculture were harvested, washed in medium without sugar, after which they were resuspended to an OD of 0.1 in 200 μL of the appropriate medium. At least three technical replicates were included per condition. OD595 was measured at 30° C. every 30 min with a 10-min shaking interval.

[1] = test system: A549 lung adenocarcinoma cells; test: A549 cell proliferation / growth inhibition; assay type: cell-based, human; settings: for Selected from primary screen for growth inhibition of A549 cells at 50 μM: 50 μM compound, 1 mM glucose; for Selected for having an IC50 ratio (10 mM glucose: 1 mM glucose) of A549 growth higher than WBC-A: IC50 on 10 mM vs 1 mM glucose, compared with WBC-A
Protocol: The analog library (n=203) was screened for inhibition of growth of A549 cells on RPMI medium supplemented with 1 mM glucose. DMSO (green bar) and WBC-A (orange bar) served as negative and positive control, respectively. In addition, the reference glucose transport inhibitors STF-31, Fasentin, BAY-876, WZB-117 and Cytochalasin B were included and indicated in red. Compounds were added at 50 μM concentration. Number of cells was determined by counting nuclei stained by Hoechst after three days of growth.
For both adherent A549 and MCF10Δ H-RAS^V12 cell lines, growth curves were established using the IncuCyte® ZOOM technology. By collecting phase contrast images, the IncuCyte® software provides a calculated confluency percentage from which growth curves can be deducted.
Cells were seeded at a density of 1000-1500 cells/well in a Nunc-Edge™ 96-well plate (Thermo Fisher Scientific) and growth was typically measured over 3 to 5 days. For the measurement of apoptosis induction using the MCF10Δ H-RAS^V12 cell line, the IncuCyte® Caspase-3/7 green dye was added to the medium in the recommended concentration at the beginning of the growth curve experiment. Apoptosis was detected by taking fluorescent images by excitation at 488 nm followed by IncuCyte® software analysis. Cell growth of the KMS-12-PE multiple myeloma cell line, which grows in suspension, was measured by manual cell counting. Cells were initially seeded at a density of 10^4 cells/well and incubated for 4 days after which the cell number was counted. For all cell lines, the same medium used for pregrowth was also used for the growth curve experiment, albeit with different glucose concentrations depending on the experimental design. With compound administration, the final concentration of DMSO never exceeded 0.1%. Typically, at least four technical repeats were included per condition.

SMILES	Rescue of the tps1Δ strain on 2.5 mM glucose at 100 μM (tps1Δ cells)	Selected from primary screen for growth inhibition of A549 cells at 50 μM [1]	Selected for having an IC50 ratio (10 mM glucose: 1 mM glucose) of A549 growth higher than WBC-A [1]
Cc1ccc(-c2csc3ncnc(Sc4nc(C5CCCCC5)n(-c5ccccc5)n4)c23)cc1 [1A]	No	No	
Cc1nc(SCC(=O)c2c(N)n(C)c(=O)n(C)c2=O)c2c(-c3cccs3)csc2n1 [1B]	No	No	
c1cnc(Sc2nc(CN3CCOCC3)nc3scc(-c4cccs4)c23)nc1 [1C]	No	Yes	Lower IC50 ratio
Cc1ccc(-c2csc3ncnc(SCC(=O)N(C)Cc4ccc(C)o4)c23)cc1 [2B]	No	Yes	Lower IC50 ratio
CCN(C(=O)CSc1nc(C)nc2scc(-c3cccs3)c12)C1CCS(=O)(=O)C1 (stereo not drawn) [2C]	Yes	Yes	Lower IC50 ratio
Cc1cc(C)n2nc(Sc3nc(C)nc4scc(-c5cccs5)c34)nc2n1 [3A]	No	No	
Cc1nc(N2CCNC(=O)C2)c2c(-c3cccs3)csc2n1 [3B]	No	No	
Cn1ccnc1Sc1nc(CN2CCOCC2)nc2scc(-c3cccs3)c12 [3C]	No	No	
Cc1ccc(-c2csc3nc(CSc4nnc5n4CCCCC5)[nH]c(=O)c23)s1 [4A]	No	No	
Cc1nc(SCCC(N)=O)c2c(-c3cccs3)csc2n1 [4B]	No	No	
Cc1nc(NCC(=O)NCc2ccco2)c2c(-c3ccccc3)csc2n1 [4C]	No	Yes	Higher IC50 ratio and confirmed
COc1ccc(-c2csc3nc(C)nc(Sc4nnc(C)n4C)c23)cc1OC [5A]	No	No	
Cc1nc(SCC(=O)N2CC(C)OC(C)C2)c2c(-c3cccs3)csc2n1 (stereo not drawn) [5B]	Yes	No	
Cc1nc(SCC(=O)Nc2ccc(OC(F)(F)F)cc2)c2c(-c3cccs3)csc2n1 [5C]	No	Yes	Lower IC50 ratio
CC(Sc1nnc2n1CCCCC2)c1nc2scc(-c3cccs3)c2c(=O)[nH]1 (stereo not drawn) [6A]	No	No	
Cc1nc(SCC(=O)NC(N)=O)c2c(-c3cccs3)csc2n1 [6B]	Yes	Yes	Lower IC50 ratio
Cc1nnc(Sc2nc(CN3CCOCC3)nc3scc(-c4cccs4)c23)n1C [6C]	No	Yes	Lower IC50 ratio
O=c1ccnc(Sc2nc(CN3CCOCC3)nc3scc(-c4cccs4)c23)[nH]1 [7A]	No	No	

SMILES	Rescue of the tps1Δ strain on 2.5 mM glucose at 100 μM (tps1Δ cells)	Selected from primary screen for growth inhibition of A549 cells at 50 μM [1]	Selected for having an IC50 ratio (10 mM glucose: 1 mM glucose) of A549 growth higher than WBC-A [1]
Cc1nc(SCC(=O)N(C)CCC#N)c2c(-c3cccs3)csc2n1 [7B]	Yes	No	
Cc1nc(SCC(=O)N2CC(C)OC(C)C2)c2c(C)c(C)sc2n1 (stereo not drawn) [7C]	No	Yes	Higher IC50 ratio, but false-positive
Cc1nnc(Sc2nc(-c3cccs3)nc3scc(-c4ccccc4)c23)n1N [8A]	No	No	
Cc1ccc(-c2csc3ncnc(SCC(=O)NCc4ccco4)c23)cc1 [8B]	No	Yes	Lower IC50 ratio
CCn1nnnc1Sc1nc(CN2CCOCC2)nc2scc(-c3cccs3)c12 [8C]	No	Yes	Lower IC50 ratio
Cc1sc2nc(CSc3ccccc3)nc(NCc3nnc4n3CCCCC4)c2c1C [9A]	No	No	
CCCN(CC1CC1)C(=O)CSc1nc(C)nc2scc(-c3cccs3)c12 [9B]	No	No	
Cc1ccc(-c2csc3ncnc(SCCN4CCOCC4)c23)cc1 [9C]	No	Yes	Lower IC50 ratio
Cc1nc(Sc2nc(CSc3ccccc3)nc3sc(C)c(C)c23)n[nH]1 [10A]	No	No	
Cc1nc(N(C)CC(=O)N2CCN(C)CC2)c2c(-c3cccs3)csc2n1 [10B]	No	No	
Cc1nc(SCC(=O)Nc2cc(C)on2)c2c(-c3cccs3)csc2n1 [10C]	Yes	Yes	Lower IC50 ratio
Cc1sc2[nH]c(CSc3nnc(-c4cccs4)n3Cc3ccccc3)nc(=N)c2c1C [11A]	No	No	
COc1ccccc1NC(=O)CSc1ncnc2scc(-c3ccccc3)c12 [11B]	No	No	
Cc1nc(SCC(=O)c2ccc3c(c2)NC(=O)CO3)c2c(-c3cccs3)csc2n1 [11C]	Yes	Yes	Higher IC50 ratio and confirmed
Cc1sc2ncnc(Sc3nnc(Cc4cccs4)n3C)c2c1C [12A]	No	No	
COc1cccc(NC(=O)CSc2ncnc3sc(C)c(-c4ccccc4)c23)c1 [12B]	No	Yes	Lower IC50 ratio
CCOC(=O)c1sc2nc(C)nc(SCC(=O)CC)c2c1C [12C]	No	No	

From patent US20240252508A1, “Novel glucose uptake inhibitors for use in the treatment of cancer” (NOVELYEAST BV, priority 2021, published 2024)
